For one experiment, the target named is T1, PD-1/PD-L1 (Homo sapiens, UniProt Q9NZQ7).
T1 construct: purchased Cisbio 63ADK000CPDPEB
Kind of experiment: PD-1/PD-L1 binding assay (HTRF, PPI-HTRF). The note with it: HTRF PD1/PD-L1 binding assay kit; 10 nM Tag1-PD-L1; 25° C. Here is the method:
Assay 1 PD-1/PD-L1 Binding Assay
DMSO is from Sigma, Cat No: D5879; 384-well small volume plate (white) is from Greiner, Cat No: 784075; Anti-PD1 blocking antibody (IC50: 10 nM) is from Cisbio, Cat No: 64CUS000C-1a; Anti-PDL1 blocking antibody (IC50: 0.3 nM) is from Cisbio, Cat No: 64CUS000C-1b; HTRF PD1/PD-L1 binding assay kit is from Cisbio, Cat No: 63ADK000CPDPEB.
1. Prepare the compound to be tested at 2x concentration into 1× reaction buffer containing 4% DMSO;
2. Tag1-PD-L1 protein and Tag2-PD1 protein were prepared in 1× reaction buffer at concentrations of […] and 10 nM, respectively. The final reaction concentration of the experiment was 10 nM Tag1-PD-L1 and 2 nM […];
3. anti-Tag1-Eu3+ antibody is prepared in 1x concentration detection buffer at a ratio of 1:100;
4. anti-Tag2-XL665 antibody is prepared in 1x concentration detection buffer at a ratio of 1:25; Experimental steps
1. 5 μL of compounds to be tested (2×) was added;
2. 2.5 ul Tag1-PD-L1 protein and 2.5 ul Tag2-PD1 protein were added respectively, and the total reaction system is 10 ul, and reacted at 25° C. for 15 minutes;
3. 5 ul anti-Tag1-Eu3+ antibody and 5 ul anti-Tag2-XL665 antibody were added respectively, and reacted at 25° C. for 16 hours;
4. The fluorescence microplate reader HTRF reading program was used to read two readings at 665 nm and 620 nm, the ratio of the two wavelengths was used to judge the activity of the compound, and the IC50 of the compound to be tested is calculated by XLFIT5.0 (IDBS).
A general note: In TR-FRET formats the signal depends on donor and acceptor labels being close together.

The subject of experiment [1] is Jurkat T(PD1 Luc-)/CHOK1(PDL-1). Kind of experiment: Jurkat T(PD1 Luc-)/CHOK1(PDL-1) cell experiment (luciferase reporter). The settings on record: CHO/PD-L1-OKT3 cells co-cultured with Jurkat/PD1-NFAT-Luc cells for 6 hours; Bio-Glo luciferase signal. The class given is cell-based. How it is done: Assay 2 Jurkat T(PD1 Luc-)/CHOK1(PDL-1) Cell Experiment
G418, Sangon Biotech #A100859-0001, Cat Number G108BA0003, 5 ml of deionized water being added into each bottle, store at 4° C.
CHO/PD-L1-OKT3 cells (constructed by referring to Promega's PD-1/PD-L1 Blockade Bioassays system) cultured in F-12K medium (containing 10% FBS, 800 ug/ml G418, 400 ug/ml D Hygromycin B) were planted into a 96-well plate at 2×10^4 per well, and incubated for 24 hours at 37° C. and 5% CO2. part of the medium was removed, and the test compound dissolved in DMSO with a final concentration of 1 uM was added, and DMSO at the same concentration was added into the control cells. Jurkat/PD1-NFAT-Luc cells (constructed by referring to Promega's PD-1/PD-L1 Blockade Bioassays system) were added at 5×10^5 per well at the same time, and cultured for 6 hours. The corresponding luciferase signal was detected by Bio-Glo™ (Promega, G7940) reagent. The EC50 of each compound to be tested was calculated through the non-linear regression of XLfit software.

T1 sequence (Q9NZQ7 19-238 limits assumed): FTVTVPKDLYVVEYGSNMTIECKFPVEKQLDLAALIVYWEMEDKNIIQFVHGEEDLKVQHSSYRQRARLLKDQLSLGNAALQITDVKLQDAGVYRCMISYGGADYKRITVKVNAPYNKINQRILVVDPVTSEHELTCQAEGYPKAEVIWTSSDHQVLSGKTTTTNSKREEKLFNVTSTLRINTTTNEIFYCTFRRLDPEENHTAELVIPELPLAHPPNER

In the case of `COc1cc(/C=C/c2ccnc(-c3cccc(Nc4nccc5cc(CN6CC[C@@H](O)C6)cnc45)c3C)c2C#N)c(C(F)(F)F)cc1CN1CC[C@@H](C(=O)O)C1` [Z-14], the IC50 (usually the concentration needed to halve the response being measured) on PD-1/PD-L1 is < 1 nM. Moreover, in experiment [1], the EC50 (in general, the concentration at which the effect is half-maximal) was 208 nM.
For `Cc1cc(/C=C/c2cccc(-c3cccc(-c4nc5cc(CN6CC[C@@H](C(=O)O)C6)cc(C#N)c5o4)c3C)c2C)c(C(F)(F)F)cc1CN1CC[C@@H](O)C1` [Z-18, (R)-1-((7-cyano-2-(3′-((E)-4-(((R)-3-hydroxypyrrolidin-1-yl)methyl)-5-methyl-2-(trifluoromethyl)styryl)-2,2′-dimethyl-[1,1′-biphenyl]-3-yl)benzo[d]oxazol-5-yl)methyl)pyrrolidine-3-carboxylic Acid], the IC50 at PD-1/PD-L1 was found to be 1 nM. Moreover, the response in experiment [1] was half-maximal at 142 nM (EC50).
In turn, `COc1cc(/C=C/c2cccc(-c3cccc(-c4nc5cc(CN6CC[C@@H](C(=O)O)C6)cc(C#N)c5o4)c3C)c2C)c(C(F)(F)F)cc1CN1CC[C@@H](O)C1` [Z-21, (R)-1-((7-cyano-2-(3′-((E)-4-(((R)-3-hydroxypyrrolidin-1-yl)methyl)-5-methoxy-2-(trifluoromethyl)styryl)-2,2′-dimethyl-[1,1′-biphenyl]-3-yl)benzo[d]oxazol-5-yl)methyl) pyrrolidine-3-carboxylic Acid] displayed an IC50 on PD-1/PD-L1 of 1 nM. In experiment [1], this compound registered an EC50 of 5 nM.
The compound `COc1cc(/C=C/c2cccc(-c3cccc(-c4nc5cc(CN6CC[C@@H](O)C6)cc(C#N)c5o4)c3C)c2C)c(C(F)(F)F)cc1CN1CCCC[C@H]1C(=O)O` [Z-26] returned an IC50 at PD-1/PD-L1 of 4 nM. Besides, the EC50 in experiment [1] amounted to 39 nM.
Turning to `COc1cc(/C=C/c2cccc(-c3cccc(-c4nc5cc(CN6CC[C@@H](C(=O)O)C6)cc(C(N)=O)c5o4)c3C)c2C)c(C(F)(F)F)cc1CN1CC[C@@H](O)C1` [Z-27, (R)-1-((7-carbamoyl-2-(3′-((E)-4-(((R)-3-hydroxypyrrolidin-1-yl)methyl)-5-methoxy-2-(trifluoromethyl)styryl)-2,2′-dimethyl-[1,1′-biphenyl]-3-yl)benzo[d]oxazol-5-yl)methyl)pyrrolidine-3-carboxylic Acid], the IC50 at PD-1/PD-L1 came out at 1 nM. For the same compound, the EC50 in experiment [1] amounted to 176 nM.
Consider `COc1cc(/C=C/c2cccc(-c3cccc(-c4nc5cc(CN6CC[C@@H](C(=O)O)C6)cc(C#N)c5o4)c3C)c2C)c(C(F)(F)F)cc1CN1CC[C@H](O)C1` [Z-29], for which, at PD-1/PD-L1, the IC50 came to 2 nM. Further, the EC50 in experiment [1] stood at 109 nM.
The compound `COc1cc(/C=C/c2cccc(-c3cccc(-c4nc5cc(CN6CC[C@H](C(=O)O)C6)cc(C#N)c5o4)c3C)c2C)c(C(F)(F)F)cc1CN1CC[C@H](O)C1` [Z-30] registered an IC50 on PD-1/PD-L1 of 2 nM. The EC50 in experiment [1] is 104 nM.
On PD-1/PD-L1, `COc1cc(/C=C/c2cccc(-c3cccc(-c4nc5cc(CN6CC[C@@H](C(=O)O)C6)cc(C#N)c5o4)c3C)c2C)c(C(F)(F)F)cc1CNCCO` [Z-33] came in with an IC50 of 1 nM. Besides, the response in experiment [1] was half-maximal at 74 nM (EC50).
For `COc1cc(/C=C/c2cccc(-c3cccc(-c4nc5cc(CN6CC[C@@H](C(=O)O)C6)cc(C#N)c5o4)c3C)c2C)c(C(F)(F)F)cc1CN[C@@H](C)CO` [Z-34, (R)-1-((7-cyano-2-(3′-((E)-4-((((S)-1-hydroxypropan-2-yl)amino)methyl)-5-methoxy-2-(trifluoromethyl)styryl)-2,2′-dimethyl-[1,1′-biphenyl]-3-yl)benzo[d]oxazol-5-yl)methyl)pyrrolidine-3-carboxylic Acid] the same measures were 2 nM and 79 nM.
In turn, `COc1cc(/C=C/c2cccc(-c3cccc(-c4nc5cc(CN6CC[C@H](C(=O)O)C6)cc(C#N)c5o4)c3C)c2C)c(C(F)(F)F)cc1CN1CC[C@@H](O)C1` [Z-35] yielded an IC50 at PD-1/PD-L1 of 2 nM. Besides, in experiment [1], it took 29 nM to reach a half-maximal effect (EC50).
For `COc1cc(/C=C/c2cccc(-c3cccc(-c4nc5cc(CN6CC[C@@H](O)C6)cc(C#N)c5o4)c3C)c2C)c(C(F)(F)F)cc1CN1CCC[C@H]1C(=O)O` [Z-36, (4-((E)-2-(3′-(7-cyano-5-(((R)-3-hydroxypyrrolidin-1-yl)methyl)benzo[d]oxazol-2-yl)-2,2′-dimethyl-[1,1′-biphenyl]-3-yl)vinyl)-2-methoxy-5-(trifluoromethyl)benzyl)-L-proline] the same measures were 2 nM and 50 nM.
The like results for `COc1cc(/C=C/c2cccc(-c3cccc(-c4nc5cc(CN6CC[C@@H](C(=O)O)C6)cc(C#N)c5o4)c3C)c2Cl)c(C(F)(F)F)cc1CN1CC[C@@H](O)C1` [Z-38] were, in that order, 1 nM and 83 nM.
The compound `COc1cc(/C=C/c2cccc(-c3cccc(-c4nc5cc(CNCCO)cc(C#N)c5o4)c3C)c2C)c(C(F)(F)F)cc1CN1CCCC[C@H]1C(=O)O` [Z-40] displayed an IC50 at PD-1/PD-L1 of 1 nM. In experiment [1], this compound came in with an EC50 of 108 nM.
Compound `COc1cc(/C=C/c2cccc(-c3cccc(-c4nc5cc(CN[C@@H](C)CO)cc(C#N)c5o4)c3C)c2C)c(C(F)(F)F)cc1CN1CCCC[C@H]1C(=O)O` [Z-41, (S)-1-(4-((E)-2-(3′-(7-cyano-5-((((S)-1-hydroxypropan-2-yl)amino)methyl)benzo[d]oxazol-2-yl)-2,2′-dimethyl-[1,1′-biphenyl]-3-yl)vinyl)-2-methoxy-5-(trifluoromethyl)benzyl) piperidine-2-carboxylic Acid] came in with an IC50 at PD-1/PD-L1 of 2 nM. Besides, the EC50 in experiment [1] worked out at 109 nM.
The like results for `COc1cc(/C=C/c2cccc(-c3cccc(-c4nc5cc(CN6CC[C@@H](C(=O)O)C6)cc(C#N)c5o4)c3Cl)c2C)c(C(F)(F)F)cc1CN1CC[C@@H](O)C1` [Z-42] were, in that order, 1 nM and 64 nM.
On PD-1/PD-L1, `COc1cc(/C=C/c2cccc(-c3cccc(-c4nc5cc(CN6CC[C@@H](O)C6)cc(C#N)c5o4)c3C)c2C#N)c(C(F)(F)F)cc1CN1CC[C@@H](C(=O)O)C1` [Z-43] showed an IC50 of 1 nM. Besides, the EC50 in experiment [1] came to 72 nM.
For `COc1cc(/C=C/c2ccnc(-c3cccc(-c4nc5cc(CN6CC[C@@H](O)C6)cc(C#N)c5o4)c3C)c2C#N)c(C(F)(F)F)cc1CN1CC[C@@H](C(=O)O)C1` [Z-49] the same measures were 1 nM and 78 nM.
For `Cc1cc(/C=C/c2nccc(-c3cccc(-c4nc5cc(CN6CC[C@@H](O)C6)cc(C#N)c5o4)c3C)c2C#N)c(C(F)(F)F)cc1CN1CC[C@@H](C(=O)O)C1` [Z-51], on PD-1/PD-L1, the IC50 is 1 nM. Besides, the EC50 in experiment [1] worked out at 56 nM.
The like results for `COc1cc(/C=C/c2ccnc(-c3cccc(-c4nc5cc(CN6CC[C@@H](O)C6)cc(C#N)c5o4)c3C)c2Cl)c(C(F)(F)F)cc1CN1CC[C@@H](C(=O)O)C1` [Z-52] were, in that order, 1 nM and 153 nM.
For `COc1cc(/C=C/c2cccc(-c3cccc(-c4nc5c(C#N)cc(CN6CC[C@@H](C(=O)O)C6)cn5n4)c3C)c2C)c(C(F)(F)F)cc1CN1CC[C@@H](O)C1` [Z-53, (R)-1-((8-cyano-2-(3′-((E)-4-(((R)-3-hydroxypyrrolidin-1-yl)methyl)-5-methoxy-2-(trifluoromethyl)styryl)-2,2′-dimethyl-[1,1′-biphenyl]-3-yl)-[1,2,4]triazolo[1,5-a]pyridin-6-yl)methyl) pyrrolidine-3-carboxylic Acid] the same measures were 1 nM and 28 nM.
Compound `COc1cc(/C=C/c2cccc(-c3cccc(-c4ccc(CNC[C@@H]5CCC(=O)N5)c(OC)n4)c3C)c2C)c(C(F)(F)F)cc1CN1CC[C@@H](C(=O)O)C1` [Z-54, (R)-1-(2-methoxy-4-((E)-2-(3′-(6-methoxy-5-(((((S)-5-oxopyrrolidin-2-yl)methyl)amino)methyl)pyridin-2-yl)-2,2′-dimethyl-[1,1′-biphenyl]-3-yl)vinyl)-5-(trifluoromethyl)benzyl)pyrrolidine-3-carboxylic Acid] showed an IC50 at PD-1/PD-L1 of 1 nM. The EC50 in experiment [1] turned out to be 149 nM.
The like results for `COc1cc(/C=C/c2cccc(-c3cccc(-c4cnc(CN5CC[C@@H](O)C5)c(OC)n4)c3C)c2C)c(C(F)(F)F)cc1CN1CC[C@@H](C(=O)O)C1` [Z-57] were, in that order, 1 nM and 66 nM.
